Data as given in patent US20220235057A1, “CYCLIC FORMYL AND CYCLIC KETONE COMPOUNDS, PREPARATION METHOD THEREFOR, AND PHARMACEUTICAL USE” (priority 2019, published 2022).
In brackets after ≈: the same amount, converted by molar mass.

Legend:
Format in all cases: cell-based
dengue virus (DENV) = assay: anti-dengue virus activity (EC50)
[1] = tested on: drug resistant strains of Acinetobacter baumannii; assay: anti-drug resistant strains of Acinetobacter baumannii (MIC)
Usutu virus (USUV) = assay: anti-Usutu virus activity (inhibition rate); conditions: for inhibition at 11 µM / inhibition at 33 µM: Usutu virus
Zika virus (ZIKV) = assay: anti-Zika virus activity (inhibition rate); conditions: for inhibition at 11 µM / inhibition at 33 µM: Zika virus
[2] = resistant strain of Acinetobacter baumannii no. 17
[3] = resistant strain of Acinetobacter baumannii no. 18
[4] = resistant strain of Acinetobacter baumannii no. 19
[5] = resistant strain of Acinetobacter baumannii no. 20

Row | MIC [1, 2] [µg/mL] | MIC [1, 3] [µg/mL] | MIC [1, 4] [µg/mL] | MIC [1, 5] [µg/mL] | SMILES | inhibition at 11 µM (Usutu virus (USUV); Drug concentration 11 μM) [%] | inhibition at 11 µM (Zika virus (ZIKV); Drug concentration 11 μM) [%] | further results
1 | – | – | – | – | O=C1[C@@H]2CCc3ccccc3N2[C@@H](c2ccccc2O)N1Nc1ccccc1 [ZXD-120B] | – | – | EC50 (dengue virus (DENV)): 6.5 µM
2 | 2 (≈ 7.45 µM) | 4 (≈ 14.9 µM) | 2 (≈ 7.45 µM) | 4 (≈ 14.9 µM) | Nc1ccc(NNC(=O)[C@@H]2Cc3ccccc3N2)cc1 [ZBM-8] | – | – | –
3 | 0.5 (≈ 1.86 µM) | 1 (≈ 3.71 µM) | 0.5 (≈ 1.86 µM) | 0.5 (≈ 1.86 µM) | O=C(NNc1ccc(F)cc1)c1c[nH]c2ccccc12 [ZBM-20] | – | – | –
4 | – | – | – | – | O=C(NNc1ccc([N+](=O)[O-])cc1)C1CCc2ccccc2N1 (centres unmarked) [ZXD-45] | – | – | EC50 (dengue virus (DENV)): 0.31 µM
5 | 4 (≈ 18.2 µM) | 4 (≈ 18.2 µM) | 8 (≈ 36.5 µM) | 4 (≈ 18.2 µM) | O=C(NNc1ccccc1)C1CCCCN1 (centres unmarked) [ZXD-2-1] | – | – | –
6 | – | – | – | – | O=C1[C@@H]2CCc3ccccc3N2[C@@H](c2ccccc2)N1Nc1ccc([N+](=O)[O-])cc1 [ZXD-106] | – | – | EC50 (dengue virus (DENV)): 5.2 µM
7 | 0.5 (≈ 1.86 µM) | 1 (≈ 3.71 µM) | 1 (≈ 3.71 µM) | 1 (≈ 3.71 µM) | O=C(NNc1ccc(F)cc1)c1cc2ccccc2[nH]1 [ZFD-44] | – | – | –
8 | – | – | – | – | O=C1C2CCc3ccccc3N2[C@@H](c2cc3ccccc3s2)N1Nc1ccccc1 (some centres unmarked) [ZXD-178B] | 0 to 100 | > 100 | –
9 | – | – | – | – | CC(C)(C)[Si](C)(C)OCc1ccc(C2N(Nc3ccccc3)C(=O)C3CCc4ccccc4N32)cc1 (centres unmarked) [ZXD-156B] | > 100 | > 100 | –
10 | – | – | – | – | CC1(C)OB(c2ccc(C3N(Nc4ccccc4)C(=O)[C@@H]4Cc5ccccc5CN34)cc2)OC1(C)C (some centres unmarked) [ZSD-32] | < 0 | < 0 | inhibition at 33 µM (Usutu virus (USUV); Drug concentration 33 μM): 0 to 100%; inhibition at 33 µM (Zika virus (ZIKV); Drug concentration 33 μM): < 0%
11 | – | – | – | – | O=C1[C@@H]2CCc3ccccc3N2[C@@H](c2ccc(O)cc2)N1c1ccc([N+](=O)[O-])cc1 [ZXD-121] | < 0 | > 100 | inhibition at 33 µM (Usutu virus (USUV); Drug concentration 33 μM): < 0%
12 | 4 (≈ 15.8 µM) | 4 (≈ 15.8 µM) | 4 (≈ 15.8 µM) | 2 (≈ 7.9 µM) | O=C(NNc1ccccc1)[C@@H]1Cc2ccccc2N1 [ZDL-101] | – | – | –
13 | – | – | – | – | COc1ccc([C@H]2N(Nc3ccc([N+](=O)[O-])cc3)C(=O)[C@@H]3Cc4ccccc4N32)cc1O[Si](C)(C)C(C)(C)C [ZDL-93] | – | – | EC50 (dengue virus (DENV)): 24.8 µM
14 | – | – | – | – | O=C1C2CCc3ccccc3N2[C@@H](c2cccc3nonc23)N1Nc1ccccc1 (some centres unmarked) [ZXD-181A] | – | – | Anti-USUV activity (inhibition rate) (Usutu virus (USUV); Drug concentration 11 μM): − (−: Inactive); Anti-USUV activity (inhibition rate) (Usutu virus (USUV); Drug concentration 33 μM): + (+: Partial suppression); Anti-ZIKV activity (inhibition rate) (Zika virus (ZIKV); Drug concentration 11 μM): +++ (+++: Complete suppression); Anti-ZIKV activity (inhibition rate) (Zika virus (ZIKV); Drug concentration 33 μM): +++ (+++: Complete suppression)
15 | – | – | – | – | O=C1C2Cc3ccccc3CN2C(c2ccc(O)c(O)c2)N1Nc1ccccc1 (centres unmarked) [ZSD-30A] | – | – | Anti-USUV activity (inhibition rate) (Usutu virus (USUV); Drug concentration 11 μM): − (−: Inactive); Anti-USUV activity (inhibition rate) (Usutu virus (USUV); Drug concentration 33 μM): +++ (+++: Complete suppression); Anti-ZIKV activity (inhibition rate) (Zika virus (ZIKV); Drug concentration 11 μM): − (−: Inactive); Anti-ZIKV activity (inhibition rate) (Zika virus (ZIKV); Drug concentration 33 μM): − (−: Inactive)
16 | – | – | – | – | O=C1C2CCCC2C(c2ccccc2)N1c1ccc([N+](=O)[O-])cc1 (centres unmarked) [ZDL-61] | < 0 | < 0 | inhibition at 33 µM (Usutu virus (USUV); Drug concentration 33 μM): > 100%; inhibition at 33 µM (Zika virus (ZIKV); Drug concentration 33 μM): 0 to 100%
17 | – | – | – | – | O=C1C2CCc3ccccc3N2C(c2ccc(O)cc2)N1Nc1ccc([N+](=O)[O-])cc1 (centres unmarked) [ZXD-133A] | – | – | EC50 (dengue virus (DENV)): 19.5 µM
18 | 2 (≈ 5.56 µM) | 4 (≈ 11.1 µM) | 2 (≈ 5.56 µM) | 4 (≈ 11.1 µM) | O=C(NNc1ccc(OCc2ccccc2)cc1)[C@@H]1Cc2ccccc2N1 [ZBM-6] | – | – | –
19 | – | – | – | – | O=C(NNc1ccccc1)C1CCc2ccccc2N1C(=O)OCc1ccccc1 (centres unmarked) [ZXD-51] | – | – | Anti-USUV activity (inhibition rate) (Usutu virus (USUV); Drug concentration 11 μM): − (−: Inactive); Anti-USUV activity (inhibition rate) (Usutu virus (USUV); Drug concentration 33 μM): − (−: Inactive); Anti-ZIKV activity (inhibition rate) (Zika virus (ZIKV); Drug concentration 11 μM): − (−: Inactive); Anti-ZIKV activity (inhibition rate) (Zika virus (ZIKV); Drug concentration 33 μM): + (+: Partial suppression)
20 | 2 (≈ 7.37 µM) | 2 (≈ 7.37 µM) | 1 (≈ 3.69 µM) | 2 (≈ 7.37 µM) | O=C(NNc1ccc(F)cc1)[C@@H]1Cc2ccccc2N1 [ZBM-5] | – | – | –
21 | – | – | – | – | COc1ccc(CC2N(Nc3ccccc3)C(=O)C3CCc4ccccc4N32)cc1OC (centres unmarked) [ZXD-140] | < 0 | 0 to 100 | inhibition at 33 µM (Usutu virus (USUV); Drug concentration 33 μM): > 100%
22 | – | – | – | – | O=C1C2CCCC2C(c2ccccc2)N1c1ccccc1 (centres unmarked) [ZDL-60] | < 0 | < 0 | inhibition at 33 µM (Usutu virus (USUV); Drug concentration 33 μM): 0 to 100%; inhibition at 33 µM (Zika virus (ZIKV); Drug concentration 33 μM): 0 to 100%
23 | – | – | – | – | O=C1[C@@H]2Cc3ccccc3CN2C(c2ccc([N+](=O)[O-])cc2)N1Nc1ccccc1 (some centres unmarked) [ZSD-18] | < 0 | < 0 | inhibition at 33 µM (Usutu virus (USUV); Drug concentration 33 μM): 0 to 100%; inhibition at 33 µM (Zika virus (ZIKV); Drug concentration 33 μM): 0 to 100%
